Marks after values point to notes of the source that are not given here.
What was measured:
PTP1B = target: T1, PTP1B (Homo sapiens, UniProt P18031); assay: PTP1B inhibitory assay (phosphate-based detection reagent, absorbance at 620 nm); type: biochemical; conditions: means ± SD (n = 3)
T1 construct: purchased Sigma Chemical (Merck KGaA, Darmstadt, Germany)
T1 sequence (P18031 1-322 limits assumed): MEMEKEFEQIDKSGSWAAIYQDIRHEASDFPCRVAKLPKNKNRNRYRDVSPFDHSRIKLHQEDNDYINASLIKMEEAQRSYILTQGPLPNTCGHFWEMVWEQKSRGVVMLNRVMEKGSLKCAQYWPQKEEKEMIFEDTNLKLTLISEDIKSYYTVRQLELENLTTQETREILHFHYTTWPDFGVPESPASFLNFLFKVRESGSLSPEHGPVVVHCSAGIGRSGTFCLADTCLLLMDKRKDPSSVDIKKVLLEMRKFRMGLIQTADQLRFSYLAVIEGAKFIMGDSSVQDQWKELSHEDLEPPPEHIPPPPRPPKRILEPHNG
Procedure: IR spectra were measured on a Bruker FT-IR Tensor-27 infrared spectrophotometer with KBr disks. Optical rotations were recorded on a JASCO P-1020 polarimeter. UV spectra were obtained with a Shimadzu UV-2401PC spectrometer. 1D and 2D NMR spectra were performed on a Bruker DRX-600 spectrometer using TMS as an internal standard. The chemical shifts (δ) were expressed in ppm with reference to the solvent signals. HREIMS and HRESIMS analysis were obtained from Waters Xevo TQS and Agilent G6230 TOF mass spectrometers, respectively. […] Semi-preparative HPLC was performed on a Waters 1525 HPLC with a ZORBAX SB-C18 (9.4 × 250 mm) column. Silica gel (100–200 and 200–300 mesh, Qingdao Marine Chemical Co., Ltd., People’s Republic of China), and MCI gel (75–150 μm, Mitsubishi Chemical Corporation, Tokyo, Japan) were used for column chromatography. Fractions were monitored by TLC (GF 254, Qingdao Marine Chemical Co., Ltd.), and spots were visualized by heating silica gel plates immersed in 10% H2SO4 in ethanol. Methanol (HPLC grade) and acetonitrile (HPLC grade) was purchased from CINC High Purity Solvents Co., Ltd (Shanghai, China).
The α-glucosidase and PTB1B inhibitory activity were conducted according to the previous reports with slight modifications. […] While in the PTB1B inhibitory assay, after addition of phosphate-based detection reagent then incubation at 30 °C for 20 min, and absorbance was measured at 620 nm and suramin was used as positive control. The inhibition percentage was calculated as follows: inhibition rate (%) = (E – S)/E × 100% (E is the OD of the control and S is the OD of the sample) and IC50 (50% concentration of inhibition) was calculated by Reed and Muench method.

α-glucosidase = α-glucosidase (Saccharomyces cerevisiae, UniProt P53341); assay: α-glucosidase inhibitory assay (PNPG, absorbance at 405 nm); type: biochemical; conditions: at a concentration of 50 μM; means ± SD (n = 3); read-out: α-Glucosidase Inhibition ratio (%)
Procedure: The α-glucosidase and PTB1B inhibitory activity were conducted according to the previous reports with slight modifications [49, 50]. […] The inhibition percentage was calculated as follows: inhibition rate (%) = (E – S)/E × 100% (E is the OD of the control and S is the OD of the sample) and IC50 (50% concentration of inhibition) was calculated by Reed and Muench method.

[1] = test concentration of the compounds not given

Chain of α-glucosidase (P53341 whole entry): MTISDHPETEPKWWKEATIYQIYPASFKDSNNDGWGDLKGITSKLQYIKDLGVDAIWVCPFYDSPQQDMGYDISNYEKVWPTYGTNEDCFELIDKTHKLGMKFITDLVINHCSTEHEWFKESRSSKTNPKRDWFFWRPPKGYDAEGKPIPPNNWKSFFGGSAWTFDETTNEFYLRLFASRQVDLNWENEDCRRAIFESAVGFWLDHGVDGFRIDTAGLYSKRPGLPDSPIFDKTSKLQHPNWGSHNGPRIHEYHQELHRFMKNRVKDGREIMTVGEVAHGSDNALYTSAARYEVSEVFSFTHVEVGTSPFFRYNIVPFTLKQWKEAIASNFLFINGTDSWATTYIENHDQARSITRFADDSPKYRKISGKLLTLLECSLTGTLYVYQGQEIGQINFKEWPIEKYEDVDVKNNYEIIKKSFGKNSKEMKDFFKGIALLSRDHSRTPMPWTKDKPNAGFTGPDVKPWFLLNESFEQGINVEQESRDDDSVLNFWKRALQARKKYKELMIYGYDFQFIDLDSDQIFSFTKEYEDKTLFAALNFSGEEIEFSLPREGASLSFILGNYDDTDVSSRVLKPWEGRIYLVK

PTP1B inhibition ratio (%) (PTP1B; [1]) | PTP1B inhibition ratio (%) (PTP1B; at a concentration of 20 μM, positive control) | inhibition at 50 µM (α-glucosidase) [%] | SMILES
-3.47 ± 1.21 |  |  | Oc1ccc2cc1Oc1ccc(cc1)CC/C=C\C=C\C2 [Compound 8, tedarenes A]
11.32 ± 2.03 |  | 43.98 ± 0.43 | Oc1ccc2cc1Oc1ccc(cc1)C[C@H](O)/C=C\C=C\C2 [Compound 2, Otteacumiene B]
-9.47 ± 2.28 |  | 38.3 ± 1.79 | Oc1ccc2cc1Oc1ccc(cc1)CC=CC=CC(O)C2 (centres unmarked) [Compound 1, Otteacumiene A]

Second part, the compound before the results:

SMILES | PTP1B inhibition ratio (%) (PTP1B; [1]) | PTP1B inhibition ratio (%) (PTP1B; at a concentration of 20 μM, positive control) | inhibition at 50 µM (α-glucosidase) [%]
COc1ccc(/C=C/C/C=C/CCc2ccc(OC)cc2)cc1 [Compound 7, (1E,4E)-1,7-di(4-methoxyphenyl)-1,4-heptadiene] | -26.62 ± 2.28 |  | 
O=C1C/C=C/CCc2ccc(O)c(c2)-c2cc(ccc2O)C1 [Compound 4, Otteacumiene D] | 10.37 ± 2.17 |  | 
Cc1ccc(C(=O)Nc2ccc(S(=O)(=O)O)c3cc(S(=O)(=O)O)cc(S(=O)(=O)O)c23)cc1NC(=O)c1cccc(NC(=O)Nc2cccc(C(=O)Nc3cc(C(=O)Nc4ccc(S(=O)(=O)O)c5cc(S(=O)(=O)O)cc(S(=O)(=O)O)c45)ccc3C)c2)c1 [Suramin, suramin, reference compound] |  | 84.11 ± 0.42^d % | 
COc1ccc(CC/C=C\C=C\Cc2ccc(O)cc2)cc1 [Compound 6, Otteacumiene F] | -12.94 ± 2.98 |  | 
Oc1ccc(C/C=C/C=C\CCc2ccc(O)cc2)cc1 [Compound 5, Otteacumiene E] | -0.28 ± 1.89 |  | 
COC1c2ccc(O)c(c2)Oc2ccc(cc2)CCC=CCC1O (centres unmarked) [Compound 3, Otteacumiene C] | 19.07 ± 0.85 |  | 

Source: article PMC9184688, “α-Glucosidase inhibitive diarylheptanoids from Ottelia acuminata var. acuminata, a traditional vegetable of Bai Nationality in Yunnan” (Natural Products and Bioprospecting, 2022)
